Data published in patent US10577363B2, “Substituted piperidine compounds” (EPIZYME, INC., priority 2014, dated 2020).

What follows are molecules tested against SMYD3 (Homo sapiens (Human), UniProt Q9H7B4) (assay: SMYD3 biochemical assay (SPA, 3H-SAM methylation of MEKK2 protein substrate)). Settings: read-out: SMYD3 Biochem IC50 (μM)*.
Procedure, shortened: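 Full-length native human SMYD3 (E. coli-expressed, tags removed) preincubated with compounds 30 min at room temperature, then reaction started with 3H-SAM and GST-tagged MEKK2 protein in 25 mM Tris-Cl pH 8.0, 1 mM TCEP, 0.005% BSG, 0.005% Tween 20. Quenched with unlabelled SAM (100 uM final); 3H-MEKK2 counted by SPA.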

| IC50 [µM] | SMILES |
| --- | --- |
| 0.759 | C[C@@H]1CC(NC(=O)c2cc(C3CC3)on2)CCN1C(=O)C1CC12CCNCC2 (stereo partly drawn) [compound 136, 5-cyclopropyl-N-((2R)-2-methyl-1-(6-azaspiro[2.5]octane-1-carbonyl)piperidin-4-yl)isoxazole-3-carboxamide] |
| 41.2 | C[C@@H]1CC(NC(=O)c2cc(C3CC3)on2)CCN1C(=O)[C@H]1CC[C@H](O)CC1 (stereo partly drawn) [compound 137, 5-cyclopropyl-N-((2R)-1-((1r,4R)-4-hydroxycyclohexane-1-carbonyl)-2-methylpiperidin-4-yl)isoxazole-3-carboxamide] |
| 4.31 | C[C@H]1CC(NC(=O)c2cc(C3CC3)on2)CCN1C[C@H]1CC[C@H](N)CC1 (stereo partly drawn) [compound 138, N-((2S)-1-(((1r,4S)-4-aminocyclohexyl)methyl)-2-methylpiperidin-4-yl)-5-cyclopropylisoxazole-3-carboxamide] |
| 1.65 | C[C@@H]1CC(NC(=O)c2cc(C3CC3)on2)CCN1C(=O)[C@H]1CC[C@H](N(C)C)CC1 (stereo partly drawn) [compound 139, 5-cyclopropyl-N-((2R)-1-((1r,4R)-4-(dimethylamino)cyclohexane-1-carbonyl)-2-methylpiperidin-4-yl)isoxazole-3-carboxamide] |
| 0.842 | CC1CNCCC1CC(=O)N1CCC(NC(=O)c2cc(C3CC3)on2)C[C@H]1C (stereo partly drawn) [compound 140, 5-cyclopropyl-N-((2R)-2-methyl-1-(2-(3-methylpiperidin-4-yl)acetyl)piperidin-4-yl)isoxazole-3-carboxamide] |
| 3.53 | CC1CC(CC(=O)N2CCC(NC(=O)c3cc(C4CC4)on3)C[C@@H]2C)CCN1 (stereo partly drawn) [compound 141, 5-cyclopropyl-N-((2S)-2-methyl-1-(2-(2-methylpiperidin-4-yl)acetyl)piperidin-4-yl)isoxazole-3-carboxamide] |
| 3.65 | C[C@H]1CC(NC(=O)c2cc(C3CC3)on2)CCN1C(=O)CCCN (stereo partly drawn) [compound 142, N-((2S)-1-(4-aminobutanoyl)-2-methylpiperidin-4-yl)-5-cyclopropylisoxazole-3-carboxamide] |
| 1.99 | C[C@@H]1CC(NC(=O)c2cc(C3CC3)on2)CCN1C(=O)[C@H]1CCC[C@@H](N)C1 (stereo partly drawn) [compound 143, N-((2R)-1-((1S,3R)-3-aminocyclohexane-1-carbonyl)-2-methylpiperidin-4-yl)-5-cyclopropylisoxazole-3-carboxamide] |
| 0.546 | C[C@@H]1CC(NC(=O)c2cc(C3CC3)on2)CCN1C(=O)C1CC2(CCNC2)C1 (stereo partly drawn) [compound 144, 5-cyclopropyl-N-((2R)-2-methyl-1-(6-azaspiro[3.4]octane-2-carbonyl)piperidin-4-yl)isoxazole-3-carboxamide] |
| 5.98 | N[C@@H]1CC[C@@H](C(=O)N2CCC(NC(=O)c3cc(C4CC4)on3)CC2)C1 [compound 145, N-(1-((1R,3R)-3-aminocyclopentane-1-carbonyl)piperidin-4-yl)-5-cyclopropylisoxazole-3-carboxamide] |
| 2.28 | C[C@@H]1CN(C(=O)[C@H]2CC[C@H](N)CC2)CC[C@H]1NC(=O)c1cc(C2CC2)on1 [compound 146, N-((3R,4R)-1-((1r,4R)-4-aminocyclohexane-1-carbonyl)-3-methylpiperidin-4-yl)-5-cyclopropylisoxazole-3-carboxamide] |
| 1.53 | C[C@@H]1CN(C(=O)CC2CCNCC2)CC[C@H]1NC(=O)c1cc(C2CC2)on1 [compound 147, 5-cyclopropyl-N-((3R,4R)-3-methyl-1-(2-(piperidin-4-yl)acetyl)piperidin-4-yl)isoxazole-3-carboxamide] |
| 0.91 | CC1(NC(=O)c2cc(C3CC3)on2)CCN(C(=O)[C@H]2CC[C@H](N)CC2)CC1 [compound 150, N-(1-((1r,4r)-4-aminocyclohexane-1-carbonyl)-4-methylpiperidin-4-yl)-5-cyclopropylisoxazole-3-carboxamide] |
| 3.54 | CCOC(=O)C1CN(C(=O)[C@H]2CC[C@H](N)CC2)CCC1NC(=O)c1cc(C2CC2)on1 (some centres unmarked) [compound 151, ethyl 1-((1r,4r)-4-aminocyclohexane-1-carbonyl)-4-(5-cyclopropylisoxazole-3-carboxamido)piperidine-3-carboxylate] |
| 2.25 | N[C@H]1CC[C@H](C(=O)N2CCC(NC(=O)c3cc(C4CC4)on3)C(F)(F)C2)CC1 (some centres unmarked) [compound 152, N-(1-((1r,4r)-4-aminocyclohexane-1-carbonyl)-3,3-difluoropiperidin-4-yl)-5-cyclopropylisoxazole-3-carboxamide] |
| 0.848 | CC1(NC(=O)c2cc(C3CC3)on2)CCN(C(=O)CC2CCNCC2)CC1 [compound 153, 5-cyclopropyl-N-(4-methyl-1-(2-(piperidin-4-yl)acetyl)piperidin-4-yl)isoxazole-3-carboxamide] |
| 1.56 | O=C(NC1CCN(C(=O)CC2CCNCC2)CC1(F)F)c1cc(C2CC2)on1 (centres unmarked) [compound 154, 5-cyclopropyl-N-(3,3-difluoro-1-(2-(piperidin-4-yl)acetyl)piperidin-4-yl)isoxazole-3-carboxamide] |
| 0.575 | CC1(C)CN(C(=O)[C@H]2CC[C@H](N)CC2)CCC1NC(=O)c1cc(C2CC2)on1 (some centres unmarked) [compound 155, N-(1-((1r,4r)-4-aminocyclohexane-1-carbonyl)-3,3-dimethylpiperidin-4-yl)-5-cyclopropylisoxazole-3-carboxamide] |

| IC50 [µM] | SMILES |
| --- | --- |
| 0.521 | CC1(C)CN(C(=O)CC2CCNCC2)CCC1NC(=O)c1cc(C2CC2)on1 (centres unmarked) [compound 157, 5-cyclopropyl-N-(3,3-dimethyl-1-(2-(piperidin-4-yl)acetyl)piperidin-4-yl)isoxazole-3-carboxamide] |
| 7.34 | CC1(NC(=O)c2cc(C3CC3)on2)CCN(C(=O)CCCN)CC1 [compound 158, N-(1-(4-aminobutanoyl)-4-methylpiperidin-4-yl)-5-cyclopropylisoxazole-3-carboxamide] |
| 25.2 | CCOC(=O)[C@@H]1CC(NC(=O)c2cc(C3CC3)on2)CCN1C(=O)CCCN (stereo partly drawn) [compound 159, ethyl (2S)-1-(4-aminobutanoyl)-4-(5-cyclopropylisoxazole-3-carboxamido)piperidine-2-carboxylate] |
| 2.23 | CCOC(=O)C1CN(C(=O)CCCN)CCC1NC(=O)c1cc(C2CC2)on1 (centres unmarked) [compound 160, ethyl 1-(4-aminobutanoyl)-4-(5-cyclopropylisoxazole-3-carboxamido)piperidine-3-carboxylate] |
| 1.25 | CC1(C)CN(C(=O)CCCN)CCC1NC(=O)c1cc(C2CC2)on1 (centres unmarked) [compound 161, N-(1-(4-aminobutanoyl)-3,3-dimethylpiperidin-4-yl)-5-cyclopropylisoxazole-3-carboxamide] |
| > 10 | N[C@H]1CC[C@H](C(=O)N2CCC(NC(=O)c3cc(C4CC4)on3)C[C@H]2c2ccccc2)CC1 (stereo partly drawn) [compound 162, N-((2S)-1-((1r,4S)-4-aminocyclohexane-1-carbonyl)-2-phenylpiperidin-4-yl)-5-cyclopropylisoxazole-3-carboxamide] |
| 7.17 | N[C@H]1CC[C@H](C(=O)N2CCC(NC(=O)c3cc(C4CC4)on3)C[C@@H]2c2ccccc2)CC1 (stereo partly drawn) [compound 163, N-((2R)-1-((1r,4R)-4-aminocyclohexane-1-carbonyl)-2-phenylpiperidin-4-yl)-5-cyclopropylisoxazole-3-carboxamide] |
| 5.91 | C[C@@H]1CC(NC(=O)c2cc(C3CC3)on2)CCN1C(=O)C(C)(C)C1CCNCC1 (stereo partly drawn) [compound 164, 5-cyclopropyl-N-((2R)-2-methyl-1-(2-methyl-2-(piperidin-4-yl)propanoyl)piperidin-4-yl)isoxazole-3-carboxamide] |
| 4.73 | C[C@H]1CC(NC(=O)c2cc(C3CC3)on2)CCN1C(=O)C(C)(C)C1CCNCC1 (stereo partly drawn) [compound 165, 5-cyclopropyl-N-((2S)-2-methyl-1-(2-methyl-2-(piperidin-4-yl)propanoyl)piperidin-4-yl)isoxazole-3-carboxamide] |
| 0.506 | CC1CC(CC(=O)N2CCC(NC(=O)c3cc(C4CC4)on3)C[C@H]2C)CCN1 (stereo partly drawn) [compound 166, 5-cyclopropyl-N-((2R)-2-methyl-1-(2-(2-methylpiperidin-4-yl)acetyl)piperidin-4-yl)isoxazole-3-carboxamide] |
| 0.911 | C[C@@H]1CC(NC(=O)c2cc(C3CC3)on2)CCN1C(=O)CC1(O)CCNCC1 (stereo partly drawn) [compound 167, 5-cyclopropyl-N-((2R)-1-(2-(4-hydroxypiperidin-4-yl)acetyl)-2-methylpiperidin-4-yl)isoxazole-3-carboxamide] |
| 3.18 | CCC1(C(=O)N2CCC(NC(=O)c3cc(C4CC4)on3)C[C@H]2C)CCNCC1 (stereo partly drawn) [compound 168, 5-cyclopropyl-N-((2R)-1-(4-ethylpiperidine-4-carbonyl)-2-methylpiperidin-4-yl)isoxazole-3-carboxamide] |
| 3.77 | CCC1(C(=O)N2CCC(NC(=O)c3cc(C4CC4)on3)C[C@@H]2C)CCNCC1 (stereo partly drawn) [compound 169, 5-cyclopropyl-N-((2S)-1-(4-ethylpiperidine-4-carbonyl)-2-methylpiperidin-4-yl)isoxazole-3-carboxamide] |
| 0.677 | C[C@@H]1CC(NC(=O)c2cc(C3CC3)on2)CCN1C(=O)C1(F)CCNCC1 (stereo partly drawn) [compound 170, 5-cyclopropyl-N-((2R)-1-(4-fluoropiperidine-4-carbonyl)-2-methylpiperidin-4-yl)isoxazole-3-carboxamide] |
| 3.11 | C[C@@H]1C[C@H](NC(=O)c2cc(C3CC3)on2)CCN1C(=O)CCCN [compound 171, N-((2R,4R)-1-(4-aminobutanoyl)-2-methylpiperidin-4-yl)-5-cyclopropylisoxazole-3-carboxamide] |
| 6.78 | C[C@@H]1C[C@H](NC(=O)c2cc(C3CC3)on2)CCN1C(=O)CC(O)CN (stereo partly drawn) [compound 172, N-((2R,4R)-1-(4-amino-3-hydroxybutanoyl)-2-methylpiperidin-4-yl)-5-cyclopropylisoxazole-3-carboxamide] |
| 5.26 | C[C@H]1CC(NC(=O)c2cc(C3CC3)on2)CCN1C(=O)CC(O)CN (stereo partly drawn) [compound 173, N-((2S)-1-(4-amino-3-hydroxybutanoyl)-2-methylpiperidin-4-yl)-5-cyclopropylisoxazole-3-carboxamide] |
